Legend:
[1] = system: AU-RNA (poly A—poly U) (RNA, polymer) A/U; test: circular dichroism titration; settings: Na+ (sodium cacodylate, I = 0.05 M); pH 7.0, room temperature; RNA 20 µM; CD spectrum somewhat changed
[2] = system: AU-RNA (poly A—poly U) (RNA, polymer) A/U; test: UV thermal denaturation, 260 nm; settings: Na+ (sodium cacodylate, I = 0.05 M), error ± 0.5, per base
[3] = system: AT-DNA (poly dAdT—poly dAdT) (DNA, polymer) AT; test: fluorimetric titration, Scatchard; settings: Na+ (sodium cacodylate, I = 0.05 M); pH 7.0, 25 °C, 0.04% DMSO; n fixed 0.2; polynucleotide as phosphates; per base
[4] = system: AU-RNA (poly A—poly U) (RNA, polymer) A/U; test: fluorimetric titration, Scatchard; settings: Na+ (sodium cacodylate, I = 0.05 M); pH 7.0, 25 °C, 0.04% DMSO; n fixed 0.2; polynucleotide as phosphates; per base

Q: How did the binding [1] turn out when `CC12SC(C(=O)NCCN)=CC1=C1CCCC1=C1C=C(C(=O)NCCN)SC12C` (stereo not drawn) was run?
A: weak

Q: `CC12SC(C(=O)NCCNC(=O)c3ccc4ccc5cccc6ccc3c4c56)=CC1=C1CCCC1=C1C=C(C(=O)NCCNC(=O)c3ccc4ccc5cccc6ccc3c4c56)SC12C` (stereo not drawn) was tested. Which “∆Tm” value ([2]; pH 7.0, 4% DMSO, r = 0.3, no stabilisation) did it give?
A: 0.3 °C

Q: How did the “∆Tm” value ([2]; pH 7.0, r = 0.3) turn out when `Cc1sc(C(=O)NCCN)cc1C1=C(c2cc(C(=O)NCCN)sc2C)CCC1` was run?
A: −0.7 °C

Q: Which results are given for `Cc1sc(C(=O)NCCNC(=O)c2ccc3ccc4cccc5ccc2c3c45)cc1C1=C(c2cc(C(=O)NCCNC(=O)c3ccc4ccc5cccc6ccc3c4c56)sc2C)CCC1`?
A: ∆Tm ([2]; pH 7.0, 0.5% DMSO, r = 0.3, RNA 20 µM, two transitions (first/second)): 0/23.4 °C; logKs [3]: 6.3 log M^-1; logKs [4]: 6.1 log M^-1

From PMC8125568 (2021)
